According to patent US11827627B2, “N-(hydroxyalkyl (hetero)aryl) tetrahydrofuran carboxamides as modulators of sodium channels” (VERTEX PHARMACEUTICALS INCORPORATED, priority 2021, dated 2023):

Target: human NaV 1.8 (Homo sapiens, UniProt Q9Y5Y9)
Test: E-VIPR assay detecting and measuring NaV inhibition properties
Type: cell-based
Conditions: HEK cells expressing a truncated form of human NaV 1.8; electrical stimulation, membrane potential FRET dyes
From the text: E-VIPR Assay Detecting and Measuring NaV Inhibition Properties
Sodium ion channels are voltage-dependent proteins that can be activated by inducing membrane voltage changes by applying electric fields. The electrical stimulation instrument and methods of use, referred to as E-VIPR, are described in International Publication No. WO 2002/008748 A3 and C.-J. Huang et al. Characterization of voltage-gated sodium channel blockers by electrical stimulation and fluorescence detection of membrane potential, 24 Nature Biotech. 439-46 (2006), both of which are incorporated by reference in their entirety. The instrument comprises a microtiter plate handler, an optical system for exciting the coumarin dye while simultaneously recording the coumarin and oxonol emissions, a waveform generator, a current- or voltage-controlled amplifier, and parallel electrode pairs that are inserted into assay plate wells. Under integrated computer control, this instrument passes user-programmed electrical stimulus protocols to cells within the wells of the microtiter plate.
16-20 hours prior to running the assay on E-VIPR, HEK cells expressing a truncated form of human NaV 1.8 with full channel activity were seeded into microtiter 384-well plates, pre-coated with matrigel, at a density of 25,000 cells per well. 2.5-5% KIR2.1 Bacmam virus was added to the final cell suspension before seeding into cell plates. HEK cells were grown in Dulbecco's Modified Eagle's Medium (DMEM) supplemented with 10% FBS (Fetal Bovine Serum, qualified; Sigma #F4135), 1% NEAA (Non-Essential Amino Acids, Gibco #11140), 1% HEPES (Gibco #15630), 1% Pen-Strep (Penicillin-Streptomycin; Gibco #15140) and 5 μg/ml Blasticidin (Gibco #R210-01). Cells were expanded in vented cap cell culture flasks, with 90-95% humidity and 5% CO2.
Reagents and Stock Solutions:
100 mg/mL Pluronic F-127 (Sigma #P2443), in dry DMSO
Compound Plates: Corning 384-well Polypropylene Round Bottom #3656
Cell Plates: 384-well tissue culture treated plates (Greiner #781091-2B)
2.5-5% KIR 2.1 Bacmam virus (produced in-house), prepared as described in Section 3.3 of J. A. Fornwald et al., Gene Expression in Mammalian Cells Using BacMam, a Modified Baculovirus System, 1350 Methods in Molecular Biology 95-116 (2016), the entire contents of which are incorporated by reference. The concentration used can be dependent on viral titer of each batch.
5 mM DiSBAC6(3), a voltage sensitive oxonol acceptor (CAS number 169211-44-3; 5-[3-(1,3-dihexylhexahydro-4,6-dioxo-2-thioxo-5-pyrimidinyl)-2-propen-1-ylidene]-1,3-dihexyldihydro-2-thioxo-4,6(1H,5H)-pyrimidinedione), in dry DMSO. The preparation of DiSBAC6(3) is analogous to that of DiSBAC4(3) as described in Voltage Sensing by Fluorescence Resonance Energy Transfer in Single Cells, Gonzalez, J. E. and Tsien, R. Y. (1995) Biophys. J. 69, 1272-1280.
5 mM CC2-DMPE, a commercially available membrane-bound coumarin phospholipid FRET donor (ThermoFisher Scientific catalog number K1017, CAS number 393782-57-5; tetradecanoic acid, 1,1′-[(1R)-1-[8-(6-chloro-7-hydroxy-2-oxo-2H-1-benzopyran-3-yl)-3-hydroxy-3-oxido-8-oxo-2,4-dioxa-7-aza-3-phosphaoct-1-yl]-1,2-ethanediyl]ester) was prepared in dry DMSO. See also, Improved indicators of cell membrane potential that use fluorescence resonance energy transfer, Gonzalez, J. E. and Tsien, R. Y. (1997) Chem. Biol. 4, 269-277.
Voltage Assay Background Suppression Compound (VABSC-1) is prepared in H2O (89-363 mM, range used to maintain solubility)
Human Serum (HS, Millipore #S1P1-01KL, or Sigma SLBR5469V and SLBR5470V as a 50%/50% mixture, for 25% assay final concentration)
Bath 1 Buffer: • Sodium Chloride 160 mM (9.35 g/L), Potassium Chloride, 4.5 mM (0.335 g/L), Glucose 10 mM (1.8 g/L), Magnesium Chloride (Anhydrous) 1 mM (0.095 g/L), Calcium Chloride 2 mM (0.222 g/L), HEPES 10 mM (2.38 g/L) in water. […]

human NaV 1.8, sequence (Q9Y5Y9 126-1722 limits assumed): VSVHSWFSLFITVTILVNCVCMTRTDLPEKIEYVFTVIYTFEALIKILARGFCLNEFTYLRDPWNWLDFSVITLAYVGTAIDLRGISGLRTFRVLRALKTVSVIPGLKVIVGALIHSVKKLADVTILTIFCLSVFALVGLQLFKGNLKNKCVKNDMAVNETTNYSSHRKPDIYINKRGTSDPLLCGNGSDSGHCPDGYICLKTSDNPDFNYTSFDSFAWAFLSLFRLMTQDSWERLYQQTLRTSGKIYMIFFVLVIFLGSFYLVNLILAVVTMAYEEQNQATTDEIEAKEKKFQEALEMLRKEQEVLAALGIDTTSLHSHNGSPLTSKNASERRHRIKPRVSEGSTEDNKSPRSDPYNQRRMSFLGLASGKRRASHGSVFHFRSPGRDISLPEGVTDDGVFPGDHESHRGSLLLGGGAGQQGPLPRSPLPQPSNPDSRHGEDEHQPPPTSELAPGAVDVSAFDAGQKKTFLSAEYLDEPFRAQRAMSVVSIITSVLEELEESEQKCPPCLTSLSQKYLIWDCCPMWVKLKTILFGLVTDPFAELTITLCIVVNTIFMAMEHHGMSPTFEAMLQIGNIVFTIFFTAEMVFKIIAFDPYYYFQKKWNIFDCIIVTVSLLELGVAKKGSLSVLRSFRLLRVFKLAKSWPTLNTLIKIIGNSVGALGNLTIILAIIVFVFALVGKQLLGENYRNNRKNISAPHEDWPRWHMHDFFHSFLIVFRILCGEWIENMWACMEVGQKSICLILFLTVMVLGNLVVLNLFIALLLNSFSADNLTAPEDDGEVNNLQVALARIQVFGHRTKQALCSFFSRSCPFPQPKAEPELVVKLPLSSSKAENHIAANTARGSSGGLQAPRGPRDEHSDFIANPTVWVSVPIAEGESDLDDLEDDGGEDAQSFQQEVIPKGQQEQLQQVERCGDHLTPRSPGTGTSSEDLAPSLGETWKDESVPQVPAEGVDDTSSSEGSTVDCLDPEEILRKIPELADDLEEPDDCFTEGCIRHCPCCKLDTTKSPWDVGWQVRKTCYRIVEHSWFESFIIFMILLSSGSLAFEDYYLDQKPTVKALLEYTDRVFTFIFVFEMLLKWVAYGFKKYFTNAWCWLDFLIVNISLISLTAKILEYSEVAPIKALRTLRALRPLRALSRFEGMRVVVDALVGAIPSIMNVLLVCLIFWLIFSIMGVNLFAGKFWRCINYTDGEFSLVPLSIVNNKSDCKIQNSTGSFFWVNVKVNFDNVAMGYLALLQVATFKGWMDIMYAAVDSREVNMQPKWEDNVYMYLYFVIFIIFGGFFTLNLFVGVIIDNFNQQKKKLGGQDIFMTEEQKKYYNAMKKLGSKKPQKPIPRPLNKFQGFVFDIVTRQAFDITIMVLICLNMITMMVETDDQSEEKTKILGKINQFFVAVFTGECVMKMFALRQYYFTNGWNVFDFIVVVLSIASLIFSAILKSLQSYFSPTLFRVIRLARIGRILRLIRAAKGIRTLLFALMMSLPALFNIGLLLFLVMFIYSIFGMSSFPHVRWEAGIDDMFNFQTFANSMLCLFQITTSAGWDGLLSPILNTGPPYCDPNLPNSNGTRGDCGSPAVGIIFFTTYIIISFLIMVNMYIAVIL

IC50	Compound
100 to 1000 nM	COc1c([C@@H]2C[C@](C)(C(F)(F)F)O[C@H]2C(=O)Nc2ccc([C@@H](O)CO)nc2)ccc(F)c1F (relative stereo) [Compound 24, rel-(2R,3S,5R)-3-(3,4-difluoro-2-methoxyphenyl)-N-(6-((R*)-1,2-dihydroxyethyl)pyridin-3-yl)-5-methyl-5-(trifluoromethyl)tetrahydrofuran-2-carboxamide]
≥ 1000 nM	COc1c([C@H]2C[C@@](C)(C(F)(F)F)O[C@@H]2C(=O)Nc2ccc([C@@H](O)CO)nc2)ccc(F)c1F (relative stereo) [Compound 25, rel-(2S,3R,5S)-3-(3,4-difluoro-2-methoxyphenyl)-N-(6-((R*)-1,2-dihydroxyethyl)pyridin-3-yl)-5-methyl-5-(trifluoromethyl)tetrahydrofuran-2-carboxamide]
10 to 100 nM	COc1c([C@H]2[C@H](C(=O)Nc3ccc(C(C)O)nc3)O[C@@](C)(C(F)(F)F)[C@H]2C)ccc(F)c1C(F)F (relative stereo) [Compound 56, rel-(2R,3S,4S,5R)-3-(3-(difluoromethyl)-4-fluoro-2-methoxyphenyl)-N-(6-(1-hydroxyethyl)pyridin-3-yl)-4,5-dimethyl-5-(trifluoromethyl)tetrahydrofuran-2-carboxamide]
10 to 100 nM	COc1c([C@H]2[C@H](C(=O)Nc3ccc([C@H](O)CO)[n+]([O-])c3)O[C@@](C)(C(F)(F)F)[C@H]2C)ccc(F)c1C (relative stereo) [Compound 59, rel-2-((S*)-1,2-dihydroxyethyl)-5-((2R,3S,4S,5R)-3-(4-fluoro-2-methoxy-3-methylphenyl)-4,5-dimethyl-5-(trifluoromethyl)tetrahydrofuran-2-carboxamido)pyridine 1-oxide]
< 10 nM	COc1c([C@H]2[C@H](C(=O)Nc3ccc([C@@H](O)CO)nc3)O[C@@](C)(C(F)(F)F)[C@H]2C)ccc(F)c1F (single isomer, unassigned) [Compound 1]
< 10 nM	COc1c([C@H]2[C@H](C(=O)Nc3ccc([C@H](O)CO)nc3)O[C@@](C)(C(F)(F)F)[C@H]2C)ccc(F)c1F (single isomer, unassigned) [Compound 2]
< 10 nM	COc1c([C@H]2[C@H](C(=O)Nc3ccc([C@@H](O)[C@@H](C)O)nc3)O[C@@](C)(C(F)(F)F)[C@H]2C)ccc(F)c1F (single isomer, unassigned) [Compound 3, rel-(2R*,3S*,4S*,5R*)-3-(3,4-difluoro-2-methoxyphenyl)-N-(6-((1R,2R)-1,2-dihydroxypropyl)pyridin-3-yl)-4,5-dimethyl-5-(trifluoromethyl)tetrahydrofuran-2-carboxamide]
< 10 nM	COc1c([C@H]2[C@H](C(=O)Nc3ccc([C@H](O)[C@H](C)O)nc3)O[C@@](C)(C(F)(F)F)[C@H]2C)ccc(F)c1F (single isomer, unassigned) [Compound 4, rel-(2R*,3S*,4S*,5R*)-3-(3,4-difluoro-2-methoxyphenyl)-N-(6-((1S,2S)-1,2-dihydroxypropyl)pyridin-3-yl)-4,5-dimethyl-5-(trifluoromethyl)tetrahydrofuran-2-carboxamide]
< 10 nM	COc1c(C2C(C(=O)Nc3cnc(C(O)CO)nc3)OC(C)(C(F)(F)F)C2C)ccc(F)c1F (single isomer, unassigned) [Compound 11]
10 to 100 nM	COc1c(C2C(C(=O)Nc3cnc(C(O)CO)nc3)OC(C)(C(F)(F)F)C2C)ccc(F)c1F (single isomer, unassigned) [Compound 12]
< 10 nM	COc1c([C@H]2[C@H](C(=O)Nc3ccc(C(O)CF)nc3)O[C@@](C)(C(F)(F)F)[C@H]2C)ccc(F)c1F (single isomer, unassigned) [Compound 16, rel-(2R*,3S*,4S*,5R*)-3-(3,4-difluoro-2-methoxyphenyl)-N-(6-(2-fluoro-1-hydroxyethyl)pyridin-3-yl)-4,5-dimethyl-5-(trifluoromethyl)tetrahydrofuran-2-carboxamide]
10 to 100 nM	COc1c(C2C(C(=O)Nc3ccc(C(O)CF)nc3)OC(C)(C(F)(F)F)C2C)ccc(F)c1F (single isomer, unassigned) [Compound 17, rel-(2R*,3S*,4S*,5R*)-3-(3,4-difluoro-2-methoxyphenyl)-N-(6-(2-fluoro-l-hydroxyethyl)pyridin-3-yl)-4,5-dimethyl-5-(trifluoromethyl)tetrahydrofuran-2-carboxamide]
10 to 100 nM	COCC(O)c1ccc(NC(=O)[C@@H]2O[C@@](C)(C(F)(F)F)[C@@H](C)[C@H]2c2ccc(F)c(F)c2OC)cn1 (single isomer, unassigned) [Compound 20, rel-(2R*,3S*,4S*,5R*)-3-(3,4-difluoro-2-methoxyphenyl)-N-(6-(1-hydroxy-2-methoxyethyl)pyridin-3-yl)-4,5-dimethyl-5-(trifluoromethyl)tetrahydrofuran-2-carboxamide]
10 to 100 nM	COCCC(O)c1ccc(NC(=O)[C@@H]2O[C@@](C)(C(F)(F)F)[C@@H](C)[C@H]2c2ccc(F)c(F)c2OC)cn1 (single isomer, unassigned) [Compound 22, rel-(2R*,3S*,4S*,5R*)-3-(3,4-difluoro-2-methoxyphenyl)-N-(6-(1-hydroxy-3-methoxypropyl)pyridin-3-yl)-4,5-dimethyl-5-(trifluoromethyl)tetrahydrofuran-2-carboxamide]
100 to 1000 nM	COCCC(O)c1ccc(NC(=O)[C@@H]2O[C@@](C)(C(F)(F)F)[C@@H](C)[C@H]2c2ccc(F)c(F)c2OC)cn1 (single isomer, unassigned) [Compound 23, rel-(2R*,3S*,4S*,5R*)-3-(3,4-difluoro-2-methoxyphenyl)-N-(6-(1-hydroxy-3-methoxypropyl)pyridin-3-yl)-4,5-dimethyl-5-(trifluoromethyl)tetrahydrofuran-2-carboxamide]
100 to 1000 nM	COc1c([C@@H]2C[C@](C)(C(F)(F)F)O[C@H]2C(=O)Nc2ccc([C@H](O)CO)nc2)ccc(F)c1F (single isomer, unassigned) [Compound 26, rel-(2R,3S,5R)-3-(3,4-difluoro-2-methoxyphenyl)-N-(6-((S*)-1,2-dihydroxyethyl)pyridin-3-yl)-5-methyl-5-(trifluoromethyl)tetrahydrofuran-2-carboxamide]
≥ 1000 nM	COc1c([C@H]2C[C@@](C)(C(F)(F)F)O[C@@H]2C(=O)Nc2ccc([C@H](O)CO)nc2)ccc(F)c1F (single isomer, unassigned) [Compound 27, rel-(2S,3R,5S)-3-(3,4-difluoro-2-methoxyphenyl)-N-(6-((S*)-1,2-dihydroxyethyl)pyridin-3-yl)-5-methyl-5-(trifluoromethyl)tetrahydrofuran-2-carboxamide]
≥ 1000 nM	COc1c([C@H]2C[C@@](C)(C(F)(F)F)O[C@@H]2C(=O)Nc2cnc(C(O)CO)nc2)ccc(F)c1F (single isomer, unassigned) [Compound 28]
100 to 1000 nM	COc1c([C@@H]2C[C@](C)(C(F)(F)F)O[C@H]2C(=O)Nc2cnc(C(O)CO)nc2)ccc(F)c1F (single isomer, unassigned) [Compound 29]
≥ 1000 nM	CCOc1c([C@H]2C[C@@](C)(C(F)(F)F)O[C@@H]2C(=O)Nc2ccc([C@H](O)CO)nc2)ccc(F)c1F (single isomer, unassigned) [Compound 32, rel-(2S,3R,5S)-N-(6-((S*)-1,2-dihydroxyethyl)pyridin-3-yl)-3-(2-ethoxy-3,4-difluorophenyl)-5-methyl-5-(trifluoromethyl)tetrahydrofuran-2-carboxamide]
